Data published in US20240091169A1, “POL[…] FOR TREATING INFLAMMATORY DISEASES” (UNIVERSITY OF SOUTH CAROLINA, priority 2022, published 2024).

How the values were obtained:
[1] = test system: DSS-induced chronic colitis; assay: DSS mouse model, Experiment 1: chronic colitis; type: in vivo, C57BL/6 female mice
Description: Experiment 1—Chronic Colitis: 14-week-old C57BL/6 female mice were given 3 cycles of DSS. Each cycle consisted of 7 days on DSS (cycle 1: 1%; cycle 2: 1.5%, cycle 3: 1%), immediately followed by 7 days of regular drinking water. Either vehicle or panaxynol was administered 3×/week beginning on the day prior to the first DSS cycle (day −1) until study completion (FIG. 9A). To ensure the induction of colitis and to quantify disease states, colitis symptoms were monitored 3×/week using a pre-established disease activity index (DAI), which quantifies bodyweight loss, stool consistency, and rectal bleeding to produce an overall symptom score; a higher score correlates with worsened disease. Mice were euthanized on day 42—one day after the last dose of panaxynol was given. Data presented in FIG. 9A-9F was obtained from 2 cohorts of Experiment 1—Chronic Colitis.
(§1) Panaxynol (PA; C17H24O) was purchased from Biopurify Pytochemicals Ltd in sealed 5 mg/mL vials in pure 95% ethanol and stored at −20° C. PA was prepared fresh on the day of treatment by diluting in H2O to 1 mg/mL for administration (p.o.) at a dosage of 2.5 mg/kg. This dosage was chosen following a pilot dose-response study to determine PA's efficacy. PA or VEH was administered 3×/week via oral gavage using flexible plastic tubing gavage needles (Instech, Cat #FTP-20) for a total of 12 weeks.
All mice underwent the same symptom monitoring and scoring. Body weights and symptom scores were determined […] to quantify disease state, with a higher score indicative of a worsened disease state. Symptom scores were calculated by scoring percent body weight loss, stool consistency, and rectal bleeding as previously described. Briefly, fresh colonic evacuates were smeared onto “Hemoccult” tape (Beckman Coulter) to assess severity of diarrhea and were tested with developer (Beckman Coulter) to assess rectal bleeding. Stool consistency was scored as follows: solid cylinder (0), soft cylinder and easily spreadable (2), and noncylindrical or runny (4). Bleeding was scored as follows: no positive detection of blood (0), detection of blood but not grossly visible (2), and gross visibility of blood (4). Body weight was calculated as percent bodyweight loss: 0%-5% (0), 6%-10% (1), 11%-15% (2), 15%-20% (3), 20%-25% (4), and >25% (5). Scores of all three categories were summed to obtain an overall symptom score for each mouse.
(§2) Prior to euthanasia, colonoscopies were performed (n=3/group) to visualize the colonic tissue and quantify the severity of disease (colitis and colorectal tumors) using an established protocol. Briefly, mice were anesthetized with isoflurane to perform a detailed endoscopic examination in which the endoscope was gently inserted into the rectum and through the anus. Air was applied to slowly set apart the intestinal walls for examination. As the scope advanced, pictures were taken frequently and the following were meticulously assessed and scored by the blinded primary investigator using the well-established scoring system to integrate evaluation of intestinal inflammation (i.e., focal lesions (edematous areas of mucosa, erosions/reddened areas, ulcers), perianal region findings (diarrhea, bloody anal discharge, or prolapse), transparency of the colonic wall (visualization of the intramural blood vessels), and presence of intestinal bleeding) and tumors. Scoring was performed as previously described with no modifications. Upon completion of colonoscopies, mice were placed on a warm pad set at 37° C. for 5 min.

[2] = test system: DSS-induced acute colitis; assay: DSS mouse model, Experiment 2: acute colitis; type: in vivo, C57BL/6 female mice
Description: Experiment 2—Acute Colitis: 14-week-old C57BL/6 female mice were given 1 cycle of 2% DSS in drinking water for 7 days, immediately followed by 7 days of regular drinking water. Either vehicle or panaxynol was administered 3×/week beginning on the day prior to the first DSS cycle (day −1) until study completion (FIG. 10A). To ensure the induction of colitis and to quantify disease states, colitis symptoms were monitored every other day using the same DAI as above. Mice were euthanized on day 14—one day after the last dose of panaxynol was given. Colons were placed in the appropriate buffers for further analysis. Data presented in FIGS. 10-14 (i.e., histology, immunofluorescence, electron microscopy, and flow cytometry) was obtained using colonic tissue from 2 cohorts of Experiment 2—Acute Colitis.
as §1, with “PA or VEH was administered 3×/week via oral gavage using flexible plastic tubing gavage needles (Instech, Cat #FTP-20) for a total of 12 weeks.” left out
All mice underwent the same symptom monitoring and scoring. […] Symptom scores were calculated by scoring percent body weight loss, stool consistency, and rectal bleeding as previously described. Briefly, fresh colonic evacuates were smeared onto “Hemoccult” tape (Beckman Coulter) to assess severity of diarrhea and were tested with developer (Beckman Coulter) to assess rectal bleeding. Stool consistency was scored as follows: solid cylinder (0), soft cylinder and easily spreadable (2), and noncylindrical or runny (4). Bleeding was scored as follows: no positive detection of blood (0), detection of blood but not grossly visible (2), and gross visibility of blood (4). Body weight was calculated as percent bodyweight loss: 0%-5% (0), 6%-10% (1), 11%-15% (2), 15%-20% (3), 20%-25% (4), and >25% (5). Scores of all three categories were summed to obtain an overall symptom score for each mouse.
as §2
Lamina propria (LP) cells were isolated from colons to be used for flow cytometry to identify immune cell populations within the colonic LP. Colons were rinsed in sterile ice-cold PBS and minced with scissors. Tissues were subjected to a cell dissociation solution (HBSS without Ca^2+Mg^2+ containing 5 mM EDTA and 1 mM DTT) in a shaking incubator for 30 min at 37° C. Tubes containing dissociated tissues were vortexed and passed through a 100 μm cell strainer; flow through containing intestinal epithelial cells (IECs) was discarded. Remaining tissue was subjected to a cell digestion buffer (HBSS with Ca^2+Mg^2+ containing 5% FBS, 5 mg/mL Collagenase D, 50 μg/mL DNase 1, and 1 U/mL Dispase) in a shaking incubator for 30 min at 37° C. Tubes were vortexed and passed through a 40 μm cell strainer. […]

[3] = throughout treatment, vs DSS+Veh

`C=CC(O)C#CC#CC/C=C\CCCCCCC` (stereo in doubt) [PA, 3(R)-(9Z)-heptadeca-1,9-dien-4,6-diyn-3-ol] was tested, and the rectal bleeding ([1]; DAI, vs DSS+Veh) was “decreased”, the stool consistency ([1]; DAI, vs DSS+Veh) was “improved” and the “reduction in ulcerations (endoscopic score)” value ([1]; day 42, vs DSS+Veh, p=0.001) was 65%. For the same compound, the “reduction in total lesions (endoscopic score)” value ([1]; day 42, vs DSS+Veh, p=0.005) was 70%, the “reduction in inflammation (endoscopic score)” value ([1]; day 42, vs DSS+Veh, p=0.016) was 54% and the “reduction in total endoscopic scores” value ([1]; day 42, vs DSS+Veh, p=0.016) was 52%. For the same compound, the “reduction in erosions (endoscopic score)” value ([1]; day 42, vs DSS+Veh, p=0.017) was 74%, the body weight ([1]; end of study, not significant vs DSS+Veh 20.7±0.4, p=0.862) was 20.3 ± 0.7 g and the DAI scores [1, 3] was “significantly (p≤0.05) improved”. For the same compound, the “goblet cell count per crypt” value ([2]; Alcian Blue, DSS+Veh -75% vs Control, p=0.0003) was “rescued”, the rectal bleeding ([2]; DAI, vs DSS+Veh) was “decreased” and the stool consistency ([2]; DAI, vs DSS+Veh) was “improved”. The average crypt width ([2]; H&E, DSS+Veh +124% vs Control, Pax vs Control p=0.641) was “not different from Control”, the “reduction in inflammation (endoscopic score)” value ([2]; day 14, vs DSS+Veh, p=0.012) was 63% and the “reduction in total endoscopic scores” value ([2]; day 14, vs DSS+Veh, p=0.014) was 62%. The “reduction in total lesions (endoscopic score)” value ([2]; day 14, vs DSS+Veh, p=0.029) was 58%, the “reduction in erosions (endoscopic score)” value ([2]; day 14, vs DSS+Veh, p=0.033) was 55% and the “reduction in ulcers (endoscopic score)” value ([2]; day 14, vs DSS+Veh, p=0.047) was 62%. The “widening and gaping of the crypts (SEM 3000×)” value ([2]; distal colon) was “partially rescued”, the “edema in the intercellular space of IECs (TEM)” value ([2]; distal colon, edema seen only in DSS+Veh) was “no edema” and the “mucus on mucosa (SEM 2000×)” value ([2]; distal colon, vs DSS+Veh) was “more areas of mucus formation, preservation, and abundance”. The body weight ([2]; end of study, not significant vs DSS+Veh 18.4±0.6, p=0.383) was 19.1 ± 0.4 g, the “CD45+CD4+ helper T-cells in colonic LP” value ([2]; flow cytometry, between DSS-treated groups, p=0.446) was “no significant differences” and the “M1 macrophages in colonic LP” value ([2]; flow cytometry, vs DSS+Veh, p=0.011) was “decreased”. The “relative abundance of naïve (M0) macrophages in colonic LP” value ([2]; flow cytometry, vs DSS+Veh, p=0.019) was “increased”, the “TCRβ+FoxP3+ T-regs in colonic LP” value ([2]; flow cytometry, vs DSS+Veh, p=0.027) was “significantly increased” and the “M2 macrophages in colonic LP” value ([2]; flow cytometry, vs DSS+Veh, p=0.041) was “decreased”. For the same compound, the “LiveCD45+ immune cells in colonic LP” value ([2]; flow cytometry, vs DSS+Veh, p=0.056, not statistically significant) was “trending increase”, the “CD11b+CD68+ macrophages in colonic LP” value ([2]; flow cytometry, vs DSS+Veh, p=0.07, not statistically significant) was “decrease” and the “transitional (M1/M2) macrophages in colonic LP” value ([2]; flow cytometry, within DSS-treated groups, p=0.085) was “no significant differences”. The “crypt width distribution curve” value ([2]; rightward shift Control to DSS+Veh, FIG. 11C) was “significantly (p≤0.05) improved” and the DAI scores [2, 3] was “significantly (p≤0.05) improved”.
